Results reported in ChEMBL document CHEMBL1153661, “Antiviral optically pure dioxolane purine nucleosides analogues” (Bioorg Med Chem Lett, 1993).

How the values were obtained:
[1] = Compound was tested for inhibitory activity against HIV in human peripheral blood mononuclear (PBM, LAV strain of HIV-l) cells; format: functional, cell-based
[2] = Compound was tested for cytotoxicity against human peripheral blood mononuclear (PBM, LAV strain of HIV-l) cells; format: functional; conditions: read-out: CD50 (the source's name)
MT4 [3] = test: Compound was tested for inhibitory activity against HIV in whole cell assay (MT-4, RF strain of HIV-1 at a concentration up to […]); format: functional, cell-based; conditions: Homo sapiens
MT4 [4] = test: Compound was tested for cytotoxicity against MT-4 cells (MT-4, RF strain of HIV-1); format: functional; conditions: Homo sapiens, read-out: CD50 (the source's name)
MT4 [5] = test: Compound was tested for cytotoxicity against MT-4 cells (MT-4, RF strain of HIV-1); Compound was found non cytotoxic; format: functional, cell-based; conditions: Homo sapiens
MT4 [6] = test: Compound was tested for inhibitory activity against HIV in whole cell assay (MT-4, RF strain of HIV-1 at a concentration up to […]); IA: Found inactive; format: functional, cell-based, Homo sapiens

With `Nc1nc2c(ncn2[C@H]2CO[C@@H](CO)O2)c(=O)[nH]1` the IC50 [1] was 0.03 µM, the CC50 [2] was greater than 100 µM and the IC50 (MT4 [3]) was 10.7 µM. For the same compound, the CC50 (MT4 [4]) was greater than 425 µM.
In the case of `Nc1nc(O)c2ncn([C@@H]3CO[C@H](CO)O3)c2n1`, the CD50 (MT4 [5]) is reported as “Non-toxic” and the IC50 (MT4 [6]) is reported as “Not Active”.
